Experimental data reported in ChEMBL document CHEMBL4342498, “Design and Discovery of an Orally Efficacious Spiroindolinone-Based Tankyrase Inhibitor for the Treatment of Colon Cancer” (J Med Chem, 2020).
≈ marks a conversion by molar mass, not a printed value.

How the values were obtained:
physchem = conditions: phosphate buffered saline, pH 7.4
[1] = Protein binding in human plasma assessed as unbound fraction at 1 uM measured after 24 hrs by LC-MS/MS analysis; format: ADME, cell-free
[2] = Permeability of the compound measured after 4 hrs by PAMPA; format: ADME; conditions: read-out: permeability
[3] = Stability in mouse liver microsomes assessed as parent compound remaining at 1 uM measured after 30 mins in presence of NADPH by LC-MS/MS analysis; format: ADME, Microsome; conditions: read-out: Stability
[4] = Stability in mouse liver microsomes assessed as parent compound remaining at 1 uM measured after 60 mins in presence of NADPH by LC-MS/MS analysis; format: ADME, Microsome; conditions: read-out: Stability
COLO 320DM = test: Antiproliferative activity against human COLO320DM cells assessed as inhibition of cell growth measured after 4 days by CellTiter-Glo assay; format: functional; conditions: 96 h
[5] = Stability in rat liver microsomes assessed as parent compound remaining at 1 uM measured after 30 mins in presence of NADPH by LC-MS/MS analysis; format: ADME, Microsome; conditions: read-out: Stability
[6] = Stability in human liver microsomes assessed as parent compound remaining at 1 uM measured after 30 mins in presence of NADPH by LC-MS/MS analysis; format: ADME, Microsome; conditions: read-out: Stability
[7] = Stability in human liver microsomes assessed as parent compound remaining at 1 uM measured after 60 mins in presence of NADPH by LC-MS/MS analysis; format: ADME, Microsome; conditions: read-out: Stability
Tankyrase 1/2 [8] = target: T1, Tankyrase 1/2 (Homo sapiens, UniProt Q9H2K2+O95271)
T1 sequence (Q9H2K2 whole entry): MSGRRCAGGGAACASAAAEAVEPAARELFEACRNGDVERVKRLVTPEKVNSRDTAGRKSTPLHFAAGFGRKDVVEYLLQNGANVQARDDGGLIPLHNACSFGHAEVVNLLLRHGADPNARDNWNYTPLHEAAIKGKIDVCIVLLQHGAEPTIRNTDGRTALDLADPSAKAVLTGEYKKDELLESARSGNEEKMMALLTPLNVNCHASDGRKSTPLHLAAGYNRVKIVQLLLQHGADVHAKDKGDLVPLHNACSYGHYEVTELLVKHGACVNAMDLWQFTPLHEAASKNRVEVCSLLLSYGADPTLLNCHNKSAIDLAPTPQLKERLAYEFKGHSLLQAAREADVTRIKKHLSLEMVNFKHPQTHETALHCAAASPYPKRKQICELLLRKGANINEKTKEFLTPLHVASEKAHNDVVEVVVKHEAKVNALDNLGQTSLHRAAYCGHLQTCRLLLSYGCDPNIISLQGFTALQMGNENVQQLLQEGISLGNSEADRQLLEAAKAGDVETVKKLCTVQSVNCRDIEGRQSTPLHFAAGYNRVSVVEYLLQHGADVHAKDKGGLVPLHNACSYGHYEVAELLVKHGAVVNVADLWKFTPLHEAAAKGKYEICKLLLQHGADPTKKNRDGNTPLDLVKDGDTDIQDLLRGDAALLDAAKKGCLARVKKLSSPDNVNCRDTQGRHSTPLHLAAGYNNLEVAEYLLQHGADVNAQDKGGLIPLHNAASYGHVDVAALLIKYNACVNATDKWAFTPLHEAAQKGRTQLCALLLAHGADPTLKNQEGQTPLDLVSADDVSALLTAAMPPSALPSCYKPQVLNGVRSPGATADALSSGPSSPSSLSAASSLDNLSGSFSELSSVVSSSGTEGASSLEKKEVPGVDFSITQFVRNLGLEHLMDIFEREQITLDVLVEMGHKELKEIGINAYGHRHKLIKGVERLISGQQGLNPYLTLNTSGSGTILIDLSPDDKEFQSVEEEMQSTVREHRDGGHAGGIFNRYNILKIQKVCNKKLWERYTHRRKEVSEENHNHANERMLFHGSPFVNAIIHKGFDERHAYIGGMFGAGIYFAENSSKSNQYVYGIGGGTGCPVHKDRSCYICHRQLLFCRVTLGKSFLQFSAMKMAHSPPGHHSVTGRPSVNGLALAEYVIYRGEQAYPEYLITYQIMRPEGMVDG
T1 sequence (O95271 whole entry): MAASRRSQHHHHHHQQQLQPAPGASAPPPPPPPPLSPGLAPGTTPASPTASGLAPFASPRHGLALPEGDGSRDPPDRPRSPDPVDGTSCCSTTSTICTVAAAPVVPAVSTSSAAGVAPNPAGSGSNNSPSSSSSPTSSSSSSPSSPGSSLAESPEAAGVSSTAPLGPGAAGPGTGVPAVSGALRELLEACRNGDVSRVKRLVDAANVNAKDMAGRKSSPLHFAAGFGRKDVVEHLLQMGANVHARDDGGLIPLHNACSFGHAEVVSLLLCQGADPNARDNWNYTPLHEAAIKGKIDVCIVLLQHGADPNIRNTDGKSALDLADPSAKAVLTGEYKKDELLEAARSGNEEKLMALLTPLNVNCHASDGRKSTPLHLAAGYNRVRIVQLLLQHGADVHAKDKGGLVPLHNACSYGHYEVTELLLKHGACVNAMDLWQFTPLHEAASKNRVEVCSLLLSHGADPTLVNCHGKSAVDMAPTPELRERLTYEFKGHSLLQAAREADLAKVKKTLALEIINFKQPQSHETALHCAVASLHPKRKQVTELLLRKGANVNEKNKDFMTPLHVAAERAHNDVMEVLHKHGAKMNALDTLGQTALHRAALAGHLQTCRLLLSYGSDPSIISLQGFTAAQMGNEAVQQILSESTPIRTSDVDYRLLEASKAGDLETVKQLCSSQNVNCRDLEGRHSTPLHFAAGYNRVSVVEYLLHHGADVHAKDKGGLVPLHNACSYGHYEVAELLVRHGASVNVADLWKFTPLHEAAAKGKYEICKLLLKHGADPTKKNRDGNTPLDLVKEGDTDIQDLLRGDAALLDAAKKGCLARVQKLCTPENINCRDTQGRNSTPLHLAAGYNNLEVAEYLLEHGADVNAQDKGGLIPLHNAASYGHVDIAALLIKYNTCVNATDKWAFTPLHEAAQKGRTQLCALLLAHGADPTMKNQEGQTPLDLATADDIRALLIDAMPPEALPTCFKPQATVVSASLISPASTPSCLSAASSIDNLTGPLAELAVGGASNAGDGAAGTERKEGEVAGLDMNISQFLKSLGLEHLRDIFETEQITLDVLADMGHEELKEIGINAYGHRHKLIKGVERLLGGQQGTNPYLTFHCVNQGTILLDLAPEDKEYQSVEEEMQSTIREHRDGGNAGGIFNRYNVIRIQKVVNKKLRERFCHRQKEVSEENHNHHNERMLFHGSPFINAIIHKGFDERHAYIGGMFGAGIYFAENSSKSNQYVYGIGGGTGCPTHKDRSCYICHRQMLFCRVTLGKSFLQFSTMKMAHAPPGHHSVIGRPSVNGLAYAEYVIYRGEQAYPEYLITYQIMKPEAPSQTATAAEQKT
Description: Inhibition of TNKS/TNKS2 (unknown origin) expressed in human DLD1 cells assessed as reduction in Wnt-signaling measured after 24 hrs by TCF-luciferase reporter gene assay

Tankyrase 1/2 [9] = target: T1, Tankyrase 1/2; conditions: hek293
Description: Inhibition of TNKS/TNKS2 (unknown origin) expressed in HEK293 cells assessed as reduction in Wnt-signaling measured after 24 hrs by TCF-luciferase reporter gene assay

[10] = target: T2, Poly [ADP-ribose] polymerase tankyrase-1 (Homo sapiens, UniProt O95271)
T2 sequence (O95271 whole entry): T1 sequence (O95271 whole entry)
Description: Inhibition of recombinant human N-terminal TEV cleavage site-fused/FLAG-poly his-tagged TNKS SAM-PARP domain (1024 to 1327 residues) expressed in Escherichia coli assessed as reduction in auto-PARylation preincubated for 10 mins followed by biotinylated-NAD+ addition and measured after 45 mins by ELISA

[11] = target: T3, Poly [ADP-ribose] polymerase tankyrase-2 (Homo sapiens, UniProt Q9H2K2); test: Inhibition of recombinant human N-terminal TEV cleavage site-fused/FLAG-poly his-tagged TNKS2 ARC5-SAM-PARP domain (613 to 1166 residues) expressed in Escherichia coli assessed as reduction in auto-PARylation preincubated for 10 mins followed by biotinylated-NAD+ addition and measured after 45 mins by ELISA
T3 sequence (Q9H2K2 whole entry): T1 sequence (Q9H2K2 whole entry)

[12] = Stability in rat liver microsomes assessed as parent compound remaining at 1 uM measured after 60 mins in presence of NADPH by LC-MS/MS analysis; format: ADME, Microsome; conditions: read-out: Stability
[13] = Protein binding in mouse plasma assessed as unbound fraction at 1 uM measured after 24 hrs by LC-MS/MS analysis; format: ADME, cell-free
[14] = Efflux ratio of permeability across basolateral to apical side over apical to basolateral side in MDCK2 cells; format: ADME, cell-based, Canis lupus familiaris, MDCK-II; conditions: dog, mdck
[15] = Net efflux ratio of permeability across basolateral to apical side over apical to basolateral side in MDCK2-MDR1 cells to MDCK2 cells; format: ADME, cell-based, Canis lupus familiaris; conditions: dog, mdck
MDR1 = test: Efflux ratio of permeability across basolateral to apical side over apical to basolateral side in MDCK2-MDR1 cells; format: ADME, cell-based, Canis lupus familiaris; conditions: dog, MDCK-MDR1

SMILES	solubility at 1 h, 200 µM (physchem)	fraction unbound at 24 h, 1 µM [1]	Papp at 4 h [2]	remaining at 0.5 h, 1 µM [3]	remaining at 1 h, 1 µM [4]	GI50 (COLO 320DM)	remaining at 0.5 h, 1 µM [5]	remaining at 0.5 h, 1 µM [6]	remaining at 1 h, 1 µM [7]	IC50 (Tankyrase 1/2 [8])	IC50 (Tankyrase 1/2 [9])	IC50 [10]	IC50 [11]	remaining at 1 h, 1 µM [12]	fraction unbound at 24 h, 1 µM [13]	efflux ratio [14]	Ratio [15]	efflux ratio (MDR1)
CN1CCCc2c1nc(N1CCC3(CC1)CN(CCO)c1cc(F)cc(F)c13)[nH]c2=O	0.0402 mg/mL (≈ 93.2 µM)	0.005	33 nm/s	0.3%	0.2%	0.25 µM	0.4%	7.4%	1.4%	0.007 µM	0.0027 µM	0.0136 µM	0.0214 µM	0.2%	0.002	–	–	–
CN1CCCc2c1nc(N1CCC3(CC1)C(=O)N(C)c1cc(OCCO)cc(F)c13)[nH]c2=O	0.0751 mg/mL (≈ 164 µM)	–	–	–	0.7%	0.16 µM	–	–	19.8%	0.0023 µM	0.0008 µM	0.0035 µM	0.0047 µM	–	–	6.2	2.4	14.9
CN1CCCc2c1nc(N1CCC3(CC1)C(=O)N(CC(=O)O)c1cc(F)cc(F)c13)[nH]c2=O	0.0921 mg/mL (≈ 200 µM)	–	–	–	100%	12.6 µM	–	–	100%	1.185 µM	0.221 µM	0.0285 µM	0.0298 µM	–	–	0.4	1.3	0.5
CN1CCCc2c1nc(N1CCC3(CC1)C(=O)N(CC(F)(F)F)c1cc(F)cc(F)c13)[nH]c2=O	0.0013 mg/mL (≈ 2.69 µM)	–	–	–	1%	0.07 µM	–	–	8%	0.0024 µM	0.0002 µM	0.0162 µM	0.0324 µM	–	–	0.7	2.9	2
CN1CCCc2c1nc(N1CCC3(CC1)C(=O)N(CC#N)c1cc(F)cc(F)c13)[nH]c2=O	0.0505 mg/mL (≈ 115 µM)	–	–	–	1.2%	0.44 µM	–	–	6.1%	0.0016 µM	0.0002 µM	0.0037 µM	0.0061 µM	–	–	2.3	5.1	11.7
CN1CCCc2c1nc(N1CCC3(CC1)C(=O)N(C)c1cc(OCCN4CCCCC4)cc(F)c13)[nH]c2=O	0.101 mg/mL (≈ 192 µM)	–	–	–	56%	1.09 µM	–	–	18.5%	0.005 µM	0.0025 µM	0.012 µM	0.0333 µM	–	–	3.2	1.9	6.1
CN1CCN(CCOc2cc(F)c3c(c2)N(C)C(=O)C32CCN(c3nc4c(c(=O)[nH]3)CCCN4C)CC2)CC1	0.188 mg/mL (≈ 348 µM)	–	–	–	83.5%	0.74 µM	–	–	56.5%	0.0063 µM	0.0012 µM	0.0079 µM	0.0187 µM	–	–	13.1	6.6	86.4
CN1CCCc2c1nc(N1CCC3(CC1)C(=O)N(C)c1cc(N4CCNCC4)cc(F)c13)[nH]c2=O	0.0973 mg/mL (≈ 202 µM)	–	–	–	63.7%	1.12 µM	–	–	28.6%	0.0291 µM	0.0032 µM	0.0128 µM	0.0234 µM	–	–	6.8	1.3	9.1
